For 36 molecules, AC50 results are on record in ChEMBL document CHEMBL5291721, “A preclinical secondary pharmacology resource illuminates target-adverse drug reaction associations of marketed drugs” (Nat Commun, 2023).

In general, AC50 refers to the concentration at which the activity in the assay is half-maximal. A high value points to weaker potency.

Experiment [1] deals with T1, Alpha-1A adrenergic receptor (Homo sapiens, UniProt P35348).
T1 sequence (P35348 whole entry): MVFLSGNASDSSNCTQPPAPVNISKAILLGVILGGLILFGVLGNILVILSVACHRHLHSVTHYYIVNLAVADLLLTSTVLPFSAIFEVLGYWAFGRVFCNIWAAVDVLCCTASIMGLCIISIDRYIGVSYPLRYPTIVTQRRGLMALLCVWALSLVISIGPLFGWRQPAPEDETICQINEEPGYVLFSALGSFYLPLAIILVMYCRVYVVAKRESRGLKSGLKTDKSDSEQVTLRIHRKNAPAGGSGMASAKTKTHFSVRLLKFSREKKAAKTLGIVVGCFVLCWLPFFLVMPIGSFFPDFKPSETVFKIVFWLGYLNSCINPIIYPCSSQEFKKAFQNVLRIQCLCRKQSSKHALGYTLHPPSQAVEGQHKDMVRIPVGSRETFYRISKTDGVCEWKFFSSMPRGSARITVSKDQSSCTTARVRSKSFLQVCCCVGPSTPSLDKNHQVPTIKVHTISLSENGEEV
In kind it is functional, cell-based.

In experiment [2] the target is T1, Alpha-1A adrenergic receptor. In kind it is functional, cell-based. This is another data set of the same source.
Experiment [3] concerns the target T2, Type-1 angiotensin II receptor (Homo sapiens, UniProt P30556).
T2 sequence (P30556 whole entry): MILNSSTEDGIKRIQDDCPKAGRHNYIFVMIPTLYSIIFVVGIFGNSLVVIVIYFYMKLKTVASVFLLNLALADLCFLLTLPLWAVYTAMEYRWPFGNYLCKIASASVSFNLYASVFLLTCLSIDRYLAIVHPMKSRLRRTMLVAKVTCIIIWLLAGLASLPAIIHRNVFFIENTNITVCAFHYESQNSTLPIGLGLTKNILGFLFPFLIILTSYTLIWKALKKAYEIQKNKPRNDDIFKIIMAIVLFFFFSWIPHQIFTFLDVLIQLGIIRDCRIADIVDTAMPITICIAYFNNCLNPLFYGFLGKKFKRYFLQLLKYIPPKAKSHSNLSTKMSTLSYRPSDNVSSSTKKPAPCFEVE

The target of a further experiment is Vasopressin V1a receptor (Homo sapiens, UniProt P37288).
Vasopressin V1a receptor, sequence (P37288 whole entry): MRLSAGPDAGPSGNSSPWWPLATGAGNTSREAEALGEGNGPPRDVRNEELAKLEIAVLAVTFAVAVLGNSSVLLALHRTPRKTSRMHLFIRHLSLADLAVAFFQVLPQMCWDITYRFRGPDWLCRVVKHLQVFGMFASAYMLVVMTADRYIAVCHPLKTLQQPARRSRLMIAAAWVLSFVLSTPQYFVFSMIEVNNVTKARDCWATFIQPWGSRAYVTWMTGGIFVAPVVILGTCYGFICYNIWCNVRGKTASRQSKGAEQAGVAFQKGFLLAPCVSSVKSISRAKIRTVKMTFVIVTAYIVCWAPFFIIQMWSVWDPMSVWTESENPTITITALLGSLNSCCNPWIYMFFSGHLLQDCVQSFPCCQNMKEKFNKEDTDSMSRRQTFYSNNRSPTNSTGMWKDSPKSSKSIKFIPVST
The target in experiment [4] is T3, Muscarinic acetylcholine receptor M2 (Homo sapiens, UniProt P08172).
T3 sequence (P08172 whole entry): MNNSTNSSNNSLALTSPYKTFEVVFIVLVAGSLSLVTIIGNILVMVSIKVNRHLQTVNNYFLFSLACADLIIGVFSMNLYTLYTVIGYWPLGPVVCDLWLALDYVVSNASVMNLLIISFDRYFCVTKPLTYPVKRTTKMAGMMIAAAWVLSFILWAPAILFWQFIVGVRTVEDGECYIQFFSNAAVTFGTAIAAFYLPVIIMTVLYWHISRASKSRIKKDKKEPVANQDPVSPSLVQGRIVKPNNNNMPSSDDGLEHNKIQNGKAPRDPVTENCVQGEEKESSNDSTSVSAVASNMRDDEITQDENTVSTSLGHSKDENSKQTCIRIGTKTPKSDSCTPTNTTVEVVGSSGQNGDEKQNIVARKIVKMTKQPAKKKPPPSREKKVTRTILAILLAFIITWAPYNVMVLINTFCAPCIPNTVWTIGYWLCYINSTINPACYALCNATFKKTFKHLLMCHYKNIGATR
In kind it is functional, cell-based.

The target in experiment [5] is Neuronal acetylcholine receptor subunit alpha-4 (Homo sapiens, UniProt P43681).
Neuronal acetylcholine receptor subunit alpha-4, sequence (P43681 whole entry): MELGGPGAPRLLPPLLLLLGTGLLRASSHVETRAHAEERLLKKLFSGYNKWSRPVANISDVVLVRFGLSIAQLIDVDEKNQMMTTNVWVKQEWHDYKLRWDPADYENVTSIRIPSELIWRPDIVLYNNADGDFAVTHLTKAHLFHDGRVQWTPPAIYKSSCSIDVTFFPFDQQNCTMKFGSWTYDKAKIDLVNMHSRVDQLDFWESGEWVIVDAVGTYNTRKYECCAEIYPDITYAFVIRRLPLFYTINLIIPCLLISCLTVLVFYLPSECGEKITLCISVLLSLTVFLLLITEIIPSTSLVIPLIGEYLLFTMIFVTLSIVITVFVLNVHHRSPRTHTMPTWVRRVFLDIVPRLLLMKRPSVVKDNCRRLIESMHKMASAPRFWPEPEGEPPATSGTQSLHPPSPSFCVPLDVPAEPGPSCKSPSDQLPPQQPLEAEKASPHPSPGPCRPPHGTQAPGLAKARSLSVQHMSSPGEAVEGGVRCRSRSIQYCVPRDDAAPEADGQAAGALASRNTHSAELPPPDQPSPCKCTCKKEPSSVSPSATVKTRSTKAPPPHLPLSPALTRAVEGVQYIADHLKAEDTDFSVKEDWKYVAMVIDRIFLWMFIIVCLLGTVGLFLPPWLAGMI
The next experiment has as its target Cannabinoid receptor 1 (Homo sapiens, UniProt P21554). In kind it is functional, cell-based.
Another experiment deals with T4, Endothelin-1 receptor (Homo sapiens, UniProt P25101).
T4 sequence (P25101 whole entry): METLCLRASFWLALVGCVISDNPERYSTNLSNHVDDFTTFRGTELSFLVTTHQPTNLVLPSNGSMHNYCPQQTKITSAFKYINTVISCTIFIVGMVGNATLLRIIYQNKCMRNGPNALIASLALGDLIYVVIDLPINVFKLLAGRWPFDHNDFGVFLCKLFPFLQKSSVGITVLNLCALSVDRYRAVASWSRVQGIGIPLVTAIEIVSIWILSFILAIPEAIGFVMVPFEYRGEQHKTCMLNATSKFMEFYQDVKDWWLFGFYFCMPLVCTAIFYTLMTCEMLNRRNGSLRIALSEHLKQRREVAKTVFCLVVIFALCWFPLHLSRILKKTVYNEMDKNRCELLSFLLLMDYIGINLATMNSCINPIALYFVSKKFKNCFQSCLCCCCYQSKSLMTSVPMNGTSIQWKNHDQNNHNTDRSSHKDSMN

In experiment [6] the target is Gamma-aminobutyric acid receptor subunit alpha-1 (Rattus norvegicus, UniProt P62813). In kind it is functional.
Gamma-aminobutyric acid receptor subunit alpha-1, sequence (P62813 whole entry): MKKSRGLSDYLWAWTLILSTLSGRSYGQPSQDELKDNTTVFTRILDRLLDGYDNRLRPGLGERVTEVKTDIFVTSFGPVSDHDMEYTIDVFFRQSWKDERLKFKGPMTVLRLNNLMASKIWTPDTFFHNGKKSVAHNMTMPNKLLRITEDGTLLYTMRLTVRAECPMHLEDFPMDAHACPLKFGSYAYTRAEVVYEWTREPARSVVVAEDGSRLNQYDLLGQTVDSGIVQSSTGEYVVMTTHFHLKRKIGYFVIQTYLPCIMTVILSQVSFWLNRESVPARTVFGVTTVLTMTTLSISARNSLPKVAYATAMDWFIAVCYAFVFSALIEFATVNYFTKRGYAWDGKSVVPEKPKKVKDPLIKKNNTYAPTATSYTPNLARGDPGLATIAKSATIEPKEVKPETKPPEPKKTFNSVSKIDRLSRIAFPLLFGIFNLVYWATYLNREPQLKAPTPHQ
Experiment [7] concerns the target T5, 5-hydroxytryptamine receptor 3A (Homo sapiens, UniProt P46098).
T5 sequence (P46098 whole entry): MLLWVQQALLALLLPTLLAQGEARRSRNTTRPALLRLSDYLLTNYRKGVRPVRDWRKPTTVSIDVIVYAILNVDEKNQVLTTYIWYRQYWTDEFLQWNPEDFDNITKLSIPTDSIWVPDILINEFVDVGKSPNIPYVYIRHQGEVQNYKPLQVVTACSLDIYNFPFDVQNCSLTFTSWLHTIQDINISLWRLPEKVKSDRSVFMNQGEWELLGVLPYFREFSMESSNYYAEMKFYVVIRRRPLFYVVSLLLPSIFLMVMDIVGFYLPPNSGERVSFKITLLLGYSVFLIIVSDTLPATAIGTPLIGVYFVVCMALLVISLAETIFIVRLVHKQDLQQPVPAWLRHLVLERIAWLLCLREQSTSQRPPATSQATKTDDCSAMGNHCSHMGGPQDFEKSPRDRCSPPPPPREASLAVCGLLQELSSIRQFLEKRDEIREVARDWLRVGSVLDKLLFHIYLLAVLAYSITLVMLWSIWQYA
In kind it is functional.

Experiment [8] concerns the target 3',5'-cyclic-AMP phosphodiesterase 4D (Homo sapiens, UniProt Q08499). In kind it is functional.
Experiment [9] has as its target T1, Alpha-1A adrenergic receptor. In kind it is functional, cell-based. This is another data set of the same source.
Another experiment addresses Histamine H3 receptor (Homo sapiens, UniProt Q9Y5N1).

A value given as a limit tells only on which side of the number the result lay.
Further: assay procedure not described here.

Histamine H3 receptor, sequence (Q9Y5N1 whole entry): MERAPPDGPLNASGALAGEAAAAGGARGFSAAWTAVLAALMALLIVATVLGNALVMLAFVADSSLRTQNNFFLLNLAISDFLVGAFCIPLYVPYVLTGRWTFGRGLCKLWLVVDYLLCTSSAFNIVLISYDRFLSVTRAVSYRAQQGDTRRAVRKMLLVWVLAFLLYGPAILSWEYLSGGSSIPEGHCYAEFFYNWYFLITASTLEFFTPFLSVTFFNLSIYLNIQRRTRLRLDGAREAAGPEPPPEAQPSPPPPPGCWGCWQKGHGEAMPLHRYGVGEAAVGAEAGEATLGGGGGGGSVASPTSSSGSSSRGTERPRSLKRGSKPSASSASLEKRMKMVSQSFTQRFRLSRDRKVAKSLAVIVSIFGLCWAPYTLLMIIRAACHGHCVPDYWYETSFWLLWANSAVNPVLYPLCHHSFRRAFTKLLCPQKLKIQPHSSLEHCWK
3',5'-cyclic-AMP phosphodiesterase 4D, sequence (Q08499 whole entry): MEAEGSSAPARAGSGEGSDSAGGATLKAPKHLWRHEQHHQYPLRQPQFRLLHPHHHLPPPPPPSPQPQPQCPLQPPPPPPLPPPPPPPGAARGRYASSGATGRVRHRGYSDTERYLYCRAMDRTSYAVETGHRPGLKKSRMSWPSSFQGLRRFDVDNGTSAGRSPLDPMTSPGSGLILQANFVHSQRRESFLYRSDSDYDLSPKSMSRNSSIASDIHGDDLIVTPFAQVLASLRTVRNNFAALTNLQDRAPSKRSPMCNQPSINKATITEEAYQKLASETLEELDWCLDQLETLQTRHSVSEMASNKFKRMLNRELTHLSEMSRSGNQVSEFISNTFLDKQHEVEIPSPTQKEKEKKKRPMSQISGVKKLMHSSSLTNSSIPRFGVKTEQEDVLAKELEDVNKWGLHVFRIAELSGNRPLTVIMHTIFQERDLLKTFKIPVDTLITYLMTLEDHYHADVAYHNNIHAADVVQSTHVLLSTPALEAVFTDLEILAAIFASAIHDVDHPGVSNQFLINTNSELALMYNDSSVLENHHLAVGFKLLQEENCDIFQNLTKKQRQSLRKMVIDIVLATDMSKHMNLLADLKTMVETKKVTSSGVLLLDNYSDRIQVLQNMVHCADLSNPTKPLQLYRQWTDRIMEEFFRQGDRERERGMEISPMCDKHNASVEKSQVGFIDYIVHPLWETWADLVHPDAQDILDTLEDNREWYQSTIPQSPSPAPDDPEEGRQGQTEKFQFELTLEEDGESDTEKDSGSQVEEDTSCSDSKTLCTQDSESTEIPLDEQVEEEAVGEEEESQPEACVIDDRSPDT
Cannabinoid receptor 1, sequence (P21554 whole entry): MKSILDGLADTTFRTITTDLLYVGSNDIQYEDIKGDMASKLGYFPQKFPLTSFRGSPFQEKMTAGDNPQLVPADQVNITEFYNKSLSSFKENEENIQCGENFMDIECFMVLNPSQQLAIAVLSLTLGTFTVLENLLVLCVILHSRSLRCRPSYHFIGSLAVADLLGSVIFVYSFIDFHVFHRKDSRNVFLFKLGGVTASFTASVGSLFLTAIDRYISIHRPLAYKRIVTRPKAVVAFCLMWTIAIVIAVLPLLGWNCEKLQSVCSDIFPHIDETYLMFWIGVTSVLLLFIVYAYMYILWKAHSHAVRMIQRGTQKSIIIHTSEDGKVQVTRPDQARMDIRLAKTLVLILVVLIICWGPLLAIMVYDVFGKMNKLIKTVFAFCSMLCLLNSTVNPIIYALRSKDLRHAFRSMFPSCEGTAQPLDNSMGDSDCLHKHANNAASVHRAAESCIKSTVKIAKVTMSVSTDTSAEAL

With `O=C(O)COc1ccc(C(=O)c2cccs2)c(Cl)c1Cl`, in experiment [1], the AC50 is greater than 30 µM.
Molecule `COc1c2ccoc2cc2oc(=O)ccc12` [BERGAPTEN] yielded an AC50 in experiment [1] greater than 30 µM.
In [1], `CNC(=O)Oc1cccc2ccccc12` [CARBARIL] had an AC50 greater than 30 µM.
Molecule `CC[C@H](C)C[C@H](C)CCCCCCCCC(=O)N[C@H]1C[C@@H](O)[C@@H](NCCN)NC(=O)[C@@H]2[C@@H](O)CCN2C(=O)[C@H]([C@H](O)CCN)NC(=O)[C@H]([C@H](O)[C@@H](O)c2ccc(O)cc2)NC(=O)[C@@H]2C[C@@H](O)CN2C(=O)[C@H]([C@@H](C)O)NC1=O` [CASPOFUNGIN] yielded an AC50 in experiment [1] greater than 30 µM.
Same read-out and setting: the value for `C/C=C/C/C=C/CCC(=O)[C@H]1O[C@H]1C(N)=O` [CERULENIN] was greater than 30 µM; that for `CN(C)[C@@H]1C(O)=C(C(N)=O)C(=O)[C@@]2(O)C(O)=C3C(=O)c4c(O)ccc(Cl)c4[C@@](C)(O)[C@H]3C[C@@H]12` [CHLORTETRACYCLINE] was greater than 30 µM.
On the same count and under the same terms, as for `N[C@@H](CS)C(=O)O` [CYSTEINE], the figure is greater than 30 µM; as for `C[C@H]1O[C@@H](n2cc(F)c(=O)[nH]c2=O)[C@H](O)[C@@H]1O` [DOXIFLURIDINE], greater than 30 µM; as for `OC[C@H]1O[C@@H](c2ccc(Cl)c(Cc3ccc(O[C@H]4CCOC4)cc3)c2)[C@H](O)[C@@H](O)[C@@H]1O` [EMPAGLIFLOZIN], greater than 30 µM.
In turn, `CC(C)(O)CNc1nc(Nc2ccnc(C(F)(F)F)c2)nc(-c2cccc(C(F)(F)F)n2)n1` [ENASIDENIB] displayed an AC50 in [1] greater than 30 µM.
For `CCc1nc(C(N)=O)c(Nc2ccc(N3CCC(N4CCN(C)CC4)CC3)c(OC)c2)nc1NC1CCOCC1` [GILTERITINIB], the concentration at half-maximal activity (AC50) in experiment [1] was greater than 30 µM.
`CC[C@H](c1ccc(O)cc1)[C@@H](CC)c1ccc(O)cc1` [HEXESTROL] returned an AC50 in experiment [1] of 25.9 µM.
As for `O=C1/C(=C2\Nc3ccc(S(=O)(=O)O)cc3C2=O)Nc2ccc(S(=O)(=O)O)cc21` [INDIGOTINDISULFONATE], in experiment [1], the AC50 is greater than 30 µM.
Regarding `OC[C@H]1O[C@@H](c2ccc(F)c(Cc3cc4ccccc4s3)c2)[C@H](O)[C@@H](O)[C@@H]1O` [IPRAGLIFLOZIN], the AC50 in [1] was greater than 30 µM.
As for `CC(C)C[C@H](NC(=O)CNC(=O)c1cc(Cl)ccc1Cl)B(O)O` [IXAZOMIB], the AC50 in [1] was greater than 30 µM.
On to `C=CCN1CC[C@]23CCCC[C@H]2[C@H]1Cc1ccc(O)cc13` [LEVALLORPHAN], for which the concentration at half-maximal activity (AC50) in experiment [1] was greater than 30 µM.
Molecule `C[N+](C)(C)C[C@H](O)CC(=O)[O-]` [LEVOCARNITINE] displayed an AC50 in experiment [1] greater than 30 µM.
With `CN1CCCCC1CCN1c2ccccc2Sc2ccc([S+](C)[O-])cc21` (configuration not stated) [MESORIDAZINE], the AC50 in [1] was greater than 30 µM.
The same measure, in the same setting: the value for `C[C@@H]1C[C@H]2[C@@H]3CCC4=CC(=O)C=C[C@]4(C)[C@@]3(Cl)[C@@H](O)C[C@]2(C)[C@@]1(OC(=O)c1ccco1)C(=O)CCl` [MOMETASONE FUROATE] was greater than 30 µM.
In experiment [1], `Cc1ccccc1C(=O)Nc1ccc(C(=O)N2CCCC(N(C)C)c3ccccc32)cc1` (configuration not stated) [MOZAVAPTAN] showed an AC50 greater than 30 µM.
Molecule `O=C(O)c1cc(/N=N/c2ccc(O)c(C(=O)O)c2)ccc1O` [OLSALAZINE] returned an AC50 in experiment [1] greater than 30 µM.
In turn, `CCOC(=O)C1=C[C@@H](OC(CC)CC)[C@H](NC(C)=O)[C@@H](N)C1` [OSELTAMIVIR] displayed an AC50 in experiment [1] greater than 30 µM.
`Cc1onc(-c2ccccc2)c1C(=O)N[C@@H]1C(=O)N2[C@@H]1SC(C)(C)[C@@H]2C(=O)O` [OXACILLIN] yielded an AC50 in experiment [1] greater than 30 µM.
Molecule `CCn1cc(C(=O)O)c(=O)c2cc3c(cc21)OCO3` [OXOLINIC ACID] had an AC50 in experiment [1] greater than 30 µM.
As to `FC(F)(F)c1ccc(CNc2ccc(Cc3c[nH]c4ncc(Cl)cc34)cn2)cn1` [PEXIDARTINIB], in experiment [1], the AC50 is greater than 30 µM.
In experiment [1], `Nc1ccc(C(=O)Oc2ccccc2)c(O)c1` [PHENYL AMINOSALICYLATE] displayed an AC50 greater than 30 µM.
In [1], `CN1CCC(=C2c3ccccc3Sc3ccccc32)CC1` [PIMETHIXENE] displayed an AC50 greater than 30 µM.
Molecule `[H]/N=C(\N/C(=N/[H])Nc1ccc(Cl)cc1)NC(C)C` [PROGUANIL] displayed an AC50 in [1] greater than 30 µM.
On to `CC(CN1CC(=O)NC(=O)C1)N1CC(=O)NC(=O)C1` (configuration not stated) [RAZOXANE], for which the AC50 in experiment [1] is greater than 30 µM.
As for `CO[C@H]1/C=C/O[C@@]2(C)Oc3c(C)c(O)c4c(O)c(c(/C=N/N5CCN(C)CC5)c(O)c4c3C2=O)NC(=O)/C(C)=C\C=C\[C@H](C)[C@H](O)[C@@H](C)[C@@H](O)[C@@H](C)[C@H](OC(C)=O)[C@@H]1C` [RIFAMPIN], the AC50 in experiment [2] is greater than 30 µM; in experiment [3], 19.4 µM; on Vasopressin V1a receptor, 26.7 µM; in [4], greater than 10 µM; in experiment [5] it was 22 µM; at Cannabinoid receptor 1, greater than 30 µM. The AC50 is greater than 30 µM on Endothelin-1 receptor; greater than 30 µM in experiment [6]; 5.2 µM in experiment [7]; 13 µM in experiment [8]; greater than 30 µM in experiment [9]; 25 µM on Histamine H3 receptor.
`N[C@@H](CO)C(=O)O` [SERINE] displayed an AC50 in experiment [1] greater than 30 µM.
Turning to `CC(C)OC(=O)CCC/C=C\C[C@@H]1[C@@H](/C=C/C(F)(F)COc2ccccc2)[C@H](O)C[C@@H]1O` [TAFLUPROST], in [1], the AC50 is greater than 30 µM.
`C[C@]1(Cn2ccnn2)[C@H](C(=O)O)N2C(=O)C[C@H]2S1(=O)=O` [TAZOBACTAM] came in with an AC50 in experiment [1] greater than 30 µM.
In the case of `CC[C@H]1OC(=O)[C@H](C)C(=O)[C@H](C)[C@@H](O[C@@H]2O[C@H](C)C[C@H](N(C)C)[C@H]2O)[C@](C)(OC)C[C@@H](C)C(=O)[C@H](C)[C@H]2N(CCCCn3cnc(-c4cccnc4)c3)C(=O)O[C@]12C` [TELITHROMYCIN], in [1], the concentration at half-maximal activity (AC50) was greater than 30 µM.
For the molecule `CC1=C(/C=C/C(C)=C/C=C/C(C)=C/C(=O)O)C(C)(C)CCC1` [TRETINOIN], in [1], the AC50 is greater than 30 µM.
For `CC(=O)Oc1cc(C(F)(F)F)ccc1C(=O)O` [TRIFLUSAL], in experiment [1], the AC50 was greater than 30 µM.
